Test results from patent US12383545B1, “Treatment of migraine” (priority 2018, dated 2025).

Legend:
[1] = system: participants with episodic migraine; test: Study A: Activity Impairment in Migraine-Diary (AIM-D) PDA and PI domain scores; type: in vivo, human; details: for AIM-D Performance of Daily Activities domain score, LSMD vs. placebo (95% CI) / AIM-D Physical Impairment domain score, LSMD vs. placebo (95% CI) / AIM-D Performance of Daily Activities domain score, change from baseline, mean (SD) / AIM-D Physical Impairment domain score, LS mean change (SE): across 12 weeks; for AIM-D Performance of Daily Activities domain score, change from baseline, mean (SD) / AIM-D Physical Impairment domain score, LS mean change (SE) / AIM-D Performance of Daily Activities domain score, Month 1-3, mean (SD): mITT; for AIM-D Performance of Daily Activities domain score, Month 1-3, mean (SD): average across 12-week treatment period
Excerpt: The Activity in Migraine Diary (AIM-D) evaluates the impact of migraine on the performance of daily activities and physical impairment using an electronic daily diary. In particular, the AIM-D is comprised of two domains that evaluate Performance of Daily Activities (PDA) and Physical Impairment (PI). Assessed items for the AIM-D PDA domain include household chores, errands, leisure activities at home, social or leisure activities outside the home, strenuous physical activities, concentration, and thinking clearly. Assessed items for the AIM-D PI Domain include walking, moving one's body, bending forward, and moving one's head. Response options for each item range from “not difficult at all” to “I could not do it at all” on a 6-point rating scale. The AIM-D domain scores are scaled from 0-100, with higher scores indicating greater impact of migraine, and reductions from baseline in scores indicate improvement. See Cala et al., The Activity Impairment in Migraine-Diary (AIM-D): A Novel Migraine-Specific Patient-Reported Outcome Measure to Assess Functioning Based on Activity Impairment in Episodic and Chronic Migraine Patients, MTIS2018-005 (Sep. 5, 2018).
A secondary endpoint evaluated the change from baseline in mean monthly performance of daily activities domain score of the AIM-D across the 12-week treatment period. Another secondary endpoint evaluated the change from baseline in mean monthly physical impairment domain score of the AIM-D across the 12-week treatment period. The Activity Impairment in Migraine-Diary (AIM-D) is an 11-item daily diary that is comprised of two domains that evaluate Performance of Daily Activities (PDA; 7 items) and Physical Impairment (PI; 4 items). See Cala et al., “The Activity Impairment in Migraine Diary (AIM-D): A novel migraine-specific patient-reported outcome measure to assess functioning based on activity impairment in episodic and chronic migraine patients”, Cephalalgia 2018; 38:1-115, which is incorporated by reference herein in its entirety. In particular, the AIM-D assesses the impact of migraine on the performance of daily activities and physical impairment using a 6-point rating scale ranging from “Not difficult at all,” “A little difficult,” “Somewhat difficult,” “Very Difficult,” “Extremely Difficult”, and “I could not do it at all.” Items assessed for the AIM-D PDA domain included household chores, errands, leisure activities at home, social or leisure activities outside the home, strenuous physical activities, concentration, and thinking clearly. Items assessed for the AIM-D PI Domain included walking, moving body, bending forward, and moving head. Raw domain scores are recalled to a 0 to 100 scale, where higher scores indicate greater impact of migraine, and reductions from baseline in scores indicate improvement. The AIM-D was collected daily via an electronic diary with the same set of questions administered in headache (HA) and non-headache (NHA) versions. Monthly domain scores are calculated by summing the non-missing daily domain scores (HA and NHA days combined) and dividing the number of non-missing daily scores. The secondary endpoints for AIM-D PDA and PI domain scores were evaluated as change from baseline in mean monthly PDA or PI domain scores of the AIM-D across the 12-week treatment period.

[2] = system: participants with episodic migraine; test: Study B: MSQ v2.1 domain score over 52 weeks; type: in vivo, human; details: Role Function-Restrictive (RFR) domain, atogepant 60 mg, mITT Population
Excerpt: The Migraine-Specific Quality of Life Questionnaire Version 2.1 is one of the most frequently utilized disease-specific tools assessing the impact of migraine on HRQL. The MSQ is a validated tool that assess the impact of migraine on function (i.e., daily social and work-related activities) over the past 4 weeks across three dimensions: Role Function-Restrictive (RR, or “RFR”, relating to how migraines limit the patient's daily social and work related activities), Role Function-Preventive (RP, e.g., how migraines prevent the patient's daily social and work related activities), and Emotional Function (EF, e.g., the emotions associated with a patient's migraines). Patients respond to items using a 6-point scale: “none of the time,” “a little bit of the time,” “some of the time”, “a good bit of the time,” “most of the time” and “all of the time,” which are assigned scores of 1 to 6, respectively. Raw dimension scores are computed as a sum of item responses and rescaled from a 0 to 100 scale such that higher scores indicate better quality of life. See Bagley et al., Validating Migraine-Specific Quality of Life Questionnaire v2.1 in Episodic and Chronic Migraine, Headache, 2012 March; 52 (3): 409-21.
The Migraine-Specific Quality of Life Questionnaire version 2.1 (MSQv2.1) Role Function-Restrictive (RFR) domain least squares (LS) mean (standard error [SE]) at baseline was 48.1 (20.26) and LS mean changes from baseline throughout the trial are shown in FIG. 17 and in Table 32. Findings indicated rapid improvement over the first 12 weeks and sustained improvement from 12 to 52 weeks, and non-zero confidence intervals throughout indicate significant improvement at each timepoint assessed.

ALT or AST = test: Study B: postbaseline hepatic laboratory parameters (ALT or AST, potential Hy's Law); type: in vivo, human; details: atogepant 60 mg QD or standard of care, safety population
Excerpt: Cases of alanine aminotransferase/aspartate aminotransferase (ALT/AST) levels ≥3 times the upper limit of normal were reported for 2.4% of participants (n=13/531) treated with atogepant and 3.2% for standard-of-care (n=6/190). No cases of potential Hy's Law were reported. Table 24 provides postbaseline hepatic laboratory parameter values of clinical interest for the safety population.

[3] = Atogepant oral pharmacokinetics; type: in vivo; details: administered orally

C[C@@H]1[C@H](c2c(F)ccc(F)c2F)C[C@H](NC(=O)c2cnc3c(c2)C[C@@]2(C3)C(=O)Nc3ncccc32)C(=O)N1CC(F)(F)F [atogepant]
AIM-D Performance of Daily Activities domain score, LSMD vs. placebo (95% CI) ([1]; 10 mg QD): −1.19
AIM-D Physical Impairment domain score, LSMD vs. placebo (95% CI) ([1]; 10 mg QD): −1.08
AIM-D Performance of Daily Activities domain score, change from baseline, mean (SD) ([1]; 10 mg QD): −7.0
AIM-D Physical Impairment domain score, LS mean change (SE) ([1]; 10 mg QD): −5.11
AIM-D Performance of Daily Activities domain score, Month 1-3, mean (SD) ([1]; 10 mg QD): 8.6
AIM-D Performance of Daily Activities domain score, LSMD vs. placebo (95% CI) ([1]; 30 mg QD): −2.54
AIM-D Physical Impairment domain score, LSMD vs. placebo (95% CI) ([1]; 30 mg QD): −1.99
AIM-D Performance of Daily Activities domain score, change from baseline, mean (SD) ([1]; 30 mg QD): −8.9
AIM-D Physical Impairment domain score, LS mean change (SE) ([1]; 30 mg QD): −6.02
AIM-D Performance of Daily Activities domain score, Month 1-3, mean (SD) ([1]; 30 mg QD): 8.0
AIM-D Performance of Daily Activities domain score, LSMD vs. placebo (95% CI) ([1]; 60 mg QD): −3.32
AIM-D Physical Impairment domain score, LSMD vs. placebo (95% CI) ([1]; 60 mg QD): −2.46
AIM-D Performance of Daily Activities domain score, change from baseline, mean (SD) ([1]; 60 mg QD): −9.2
AIM-D Physical Impairment domain score, LS mean change (SE) ([1]; 60 mg QD): −6.49
AIM-D Performance of Daily Activities domain score, Month 1-3, mean (SD) ([1]; 60 mg QD): 6.6
Change from Baseline in MSQ v2.1 Domain Score, LS Mean Δ from baseline ([2]; Week 12): 30.02
Change from Baseline in MSQ v2.1 Domain Score, LS Mean Δ from baseline ([2]; Week 24): 30.79
Change from Baseline in MSQ v2.1 Domain Score, LS Mean Δ from baseline ([2]; Week 36): 32.34
Change from Baseline in MSQ v2.1 Domain Score, LS Mean Δ from baseline ([2]; Week 48): 34.32
Change from Baseline in MSQ v2.1 Domain Score, LS Mean Δ from baseline ([2]; Week 52): 34.70
Potential Hy's Law (ALT or AST ≥ 3 × ULN and Bilirubin Total ≥ 2 × ULN and ALP < 2 × ULN), n/N1 (%) (ALT or AST): (0.0) %
ALT or AST ≥1 × ULN, n/N1 (%) (ALT or AST; postbaseline): (21.1) %
ALT or AST ≥1.5 × ULN, n/N1 (%) (ALT or AST; postbaseline): (8.7) %
ALT or AST ≥2 × ULN, n/N1 (%) (ALT or AST; postbaseline): (4.9) %
ALT or AST ≥3 × ULN, n/N1 (%) (ALT or AST; postbaseline): 2.4%
ALT or AST ≥5 × ULN, n/N1 (%) (ALT or AST; postbaseline): (1.3) %
ALT or AST ≥10 × ULN, n/N1 (%) (ALT or AST; postbaseline): (0.6) %
ALT or AST ≥20 × ULN, n/N1 (%) (ALT or AST; postbaseline): (0.0) %
ALT or AST ≥3 × ULN, n/N1 (%) (ALT or AST; postbaseline, listed as Atogepant): (2.4) %
time to maximum plasma concentrations [3]: ≤ 2 h
half-life ([3]; plasma, po): ~11 h
